Results on 54 compounds are retold here after US20250214977A1, “STAT6 INHIBITORS AND USES THEREOF” (Kymera Therapeutics, Inc., priority 2024, published 2025).

The assay deals with Phosphorylation of STAT6 in human A549 cells. The assay is described as follows: Phosphorylated STAT6 (pSTAT6) flow cytometry assay in human A549 cells. To be noted: read-out: STAT6 IL4 pSTAT6 assay in A549 cells: Average IC50. It is filed as cell-based. The source says: Example 3. Phosphorylated STAT6 (pSTAT6) Flow Cytometry Assay in Human A549 Cells
Phosphorylation of STAT6 in human A549 cells was quantitatively measured using flow cytometry technology.
In general terms: In flow cytometry, cells or beads pass a laser one at a time.

Regarding `COc1cc(F)cnc1N1CCN(C(=O)c2cc3c(-c4ccc(F)c(C)c4)cc(C4=CCCN(C(=O)CCn5ccnn5)C4)c(F)c3[nH]2)CC1` [Example I-676], the IC50 (usually the point on the concentration scale where inhibition reaches its midpoint) was in the range of 100 to 1000 nM.

Consider `COc1cccnc1N1CCN(C(=O)c2cc3c(-c4cnc(C)c(C)c4OC)cc(C4=CCCN(C(=O)CCn5ccnn5)C4)c(F)c3[nH]2)CC1` [Example I-724], for which the IC50 was less than 100 nM.

Consider `COc1cc(F)cnc1N1CCN(C(=O)c2cc3c(-c4cc(O)cc5ccccc45)cc(C4=CCCN(C(=O)CCn5ccnn5)C4)c(F)c3[nH]2)CC1` [Example I-659], for which the IC50 was less than 100 nM.

In the case of `CCc1ccncc1-c1cc(C2=CCCN(C(=O)CC(=O)O)C2)c(F)c2[nH]c(C(=O)N3Cc4cnn(CC)c4C3)cc12` [Example I-787], the IC50 was less than 100 nM.

Take `COc1ccccc1-c1cc(C2=CCCN(C(=O)CCn3ccnn3)C2)c(F)c2[nH]c(C(=O)N3CCN(c4ccc5c(c4)Nc4ccccc4CC5)CC3)cc12` [Example I-947]: the IC50 was in the range of 1000 to 10000 nM.

Turning to `COCCOc1cccnc1N1CCN(C(=O)c2cc3c(-c4ccccc4OC)cc(C4=CCCN(C(=O)CCn5ccnn5)C4)c(F)c3[nH]2)CC1` [Example I-330], the IC50 is less than 100 nM.

As for `COc1ccccc1-c1cc(C2=CCCN(C(=O)CCn3ccnn3)C2)c(F)c2[nH]c(C(=O)N3CCN(c4cnc5nccnc5c4C)CC3)cc12` [Example I-944], the IC50 is less than 100 nM.

As for `CNc1ccc(-c2cc([C@@H]3CCCN(C(=O)CCn4ccnn4)C3)cc3[nH]c(C(=O)N(C)C)cc23)c(OC)c1` (single isomer, unassigned) [Example I-1191], the IC50 fell in the range of 1000 to 10000 nM.

Regarding `COc1ccccc1-c1cc(C2=CCCN(C(=O)CCn3ccnn3)C2)c(F)c2[nH]c(C(=O)N3CCN(c4cc(C)c(O)c(C)c4)CC3)cc12` [Example I-1032], the IC50 fell in the range of 100 to 1000 nM.

Turning to `COc1ccncc1-c1cc(C2=CCCN(C(C)=O)C2)c(F)c2[nH]c(C(=O)N3CCN(c4ncc(F)cc4OC)CC3)cc12` [Example I-696], the IC50 is greater than 100000 nM.

Turning to `COc1ccccc1-c1cc(C2=CCCN(C(=O)CCn3ccnn3)C2)c(F)c2[nH]c(C(=O)N3CCc4c(cnn4C)C3)cc12` [Example I-518], the IC50 was less than 100 nM.

For the compound `COc1ccccc1-c1cc(C2=CCCN(C(=O)CCn3ccnn3)C2)c(F)c2[nH]c(C(=O)N3CCN(c4nc(C)nc5ccccc45)CC3)cc12` [Example I-923], the half-inhibitory concentration (IC50) is less than 100 nM.

`CCc1cc(C)ncc1-c1cc(C2=CCCN(C(=O)CCn3ccnn3)C2)c(F)c2[nH]c(C(=O)N3CCN(c4ncc(F)cc4OC)CC3)cc12` [Example I-742]: the IC50 was less than 100 nM.

In the case of `COc1cnccc1-c1cc(C2=CCCN(C(=O)CCn3ccnn3)C2)c(F)c2[nH]c(C(=O)N3CCN(C4CC4)CC3)cc12` [Example I-605], the IC50 is less than 100 nM.

`COc1cc(F)cnc1N1CCN(C(=O)c2cc3c(Cl)cc(C4=CCCN(C(=O)CCn5ccnn5)C4)c(F)c3[nH]2)CC1` [Example I-499]: the half-inhibitory concentration (IC50) fell in the range of 10000 to 100000 nM.

`CN(C)C(=O)c1cc2ccc(C3=CCCN(C(=O)CCc4ccno4)C3)cc2[nH]1` [Example I-829]: the IC50 lay in the range of 100 to 1000 nM.

As to `Cc1cc(CNc2cc(C3=CCCN(C(=O)CCn4ccnn4)C3)cc3cc(C(=O)N(C)C)oc23)n(C)n1` [Example I-894], the IC50 lay within 100 to 1000 nM.

On to `COc1ccc(Cl)c(-c2cc(C3=CCCN(C(=O)CCn4ccnn4)C3)cc3[nH]c(C(=O)N(C)C)cc23)c1` [Example I-1062], for which the IC50 was less than 100 nM.

`CN(C)C(=O)c1cc2ccc(C3=CCCN(C(=O)CCn4cccn4)C3)cc2[nH]1` [Example I-826]: the IC50 was in the range of 100 to 1000 nM.

Regarding `CCc1nc(C)ccc1-c1cc(C(=O)N2CCN(C3CC3)CC2)cc2c(F)c(C3=CCCN(C(=O)CCn4ccnn4)C3)n(CC3CC3)c12` [Example I-548], the IC50 was greater than 100000 nM.

Turning to `COc1cc(F)cnc1N1CCN(C(=O)c2cc3c(-c4ccc(C)c5ncccc45)cc(C4=CCCN(C(=O)CCn5ccnn5)C4)c(F)c3[nH]2)CC1` [Example I-635], the IC50 is less than 100 nM.

Turning to `COCOc1ccc(-c2cc(C3=CCCN(C(=O)CCn4ccnn4)C3)c(F)c3[nH]c(C(=O)N4CCN(c5ncc(F)cc5OC)CC4)cc23)cc1` [Example I-1147], the IC50 was less than 100 nM.

For `CCc1cc(C)ncc1-c1cc(C2=CCCN(C(=O)CCn3ccnn3)C2)c(F)c2[nH]c(C(=O)N3CCN(C4CC4)CC3)cc12` [Example I-536], the IC50 is less than 100 nM.

For the compound `COc1ccccc1-c1cc(C2=CCCN(C(=O)CCn3ccnn3)C2)c(F)c2[nH]c(C(=O)N3CCC(N(C)C4CC4)C3)cc12` (stereo not drawn) [Example I-898], the IC50 is less than 100 nM.

As to `COc1ccccc1-c1cc(C2CCCN(C(=O)CCn3ccnn3)C2)c(F)c2[nH]c(C(=O)N3CCN(c4ncccc4OC4CC4)CC3)cc12` (stereo not drawn) [Example I-364], the IC50 is less than 100 nM.

In the case of `CC(=O)N1CCC=C(c2cc(-c3ccccc3C)c3cc(C(=O)N(C)C)[nH]c3c2F)C1` [Example I-890], the IC50 was 100 to 1000 nM.

On to `COc1cnccc1-c1cc(C2=CCCN(C(=O)CCn3ccnn3)C2)cc2cc(C(=O)N(C)C)oc12` [Example I-1067], for which the IC50 is less than 100 nM.

For the compound `COc1cnccc1-c1cc(C2=CCCN(C(C)=O)C2)c(F)c2sc(C(=O)N(C)C)cc12` [Example I-554], the IC50 fell in the range of 100 to 1000 nM.

On to `CCOc1c(F)cccc1-c1cc(C2=CCCN(C(=O)CCn3ccnn3)C2)c(F)c2[nH]c(C(=O)N3CCN(c4ncc(F)cc4OC)CC3)cc12` [Example I-643], for which the IC50 was less than 100 nM.

On to `COc1cc(F)ccc1-c1cc(C2=CCCN(C(=O)CCn3ccnn3)C2)c(F)c2[nH]c(C(=O)N3CCN(C4CC4)CC3)cc12` [Example I-588], for which the IC50 is less than 100 nM.

As for `COc1ccccc1-c1cc(C2=CCCN(C(=O)CCn3ccnn3)C2)c(F)c2[nH]c(C(=O)N3Cc4cnn(C)c4C3)cc12` [Example I-464], the concentration for half-maximal inhibition (IC50) is less than 100 nM.

In the case of `CCc1ccncc1-c1cc(C2=CCCN(C(=O)CCn3ccnn3)C2)c(F)c2[nH]c(C(=O)N3CCN(c4ncc(C(F)(F)F)cc4OC)CC3)cc12` [Example I-1040], the IC50 is less than 100 nM.

Regarding `COc1ccccc1/C=C/c1cc(C2=CCCN(C(=O)CCn3ccnn3)C2)c(F)c2[nH]c(C(=O)N3CCN(c4ncc(F)cc4OC)CC3)cc12` [Example I-1130], the IC50 lay in the range of 100 to 1000 nM.

For `COc1ncccc1-c1cc(C2=CCCN(C(C)=O)C2)c(F)c2[nH]c(C(=O)N(C)C)cc12` [Example I-879], the IC50 was less than 100 nM.

Turning to `COc1cc(N2CCN(C(=O)c3cc4c(-c5ccccc5OC)cc(C5=CCCN(C(=O)CCn6ccnn6)C5)c(F)c4[nH]3)CC2)c2ccccc2c1` [Example I-957], the IC50 lay in the range of 100 to 1000 nM.

On to `C=C(C)c1cc(C2=CCCN(C(=O)CCn3ccnn3)C2)c(F)c2[nH]c(C(=O)N3CCN(c4ncc(F)cc4OC)CC3)cc12` [Example I-675], for which the IC50 is less than 100 nM.

For `COc1cc(F)cnc1N1CCN(C(=O)c2cc3c(C4=CC(=O)CC4)cc(C4=CCCN(C(=O)CCn5ccnn5)C4)c(F)c3[nH]2)CC1` [Example I-1116], the IC50 was less than 100 nM.

Regarding `COc1ccccc1-c1cc(C2=CCCN(C(=O)CCn3ccnn3)C2)c(F)c2[nH]c(C(=O)N3CCN(c4ncccc4C#N)CC3)cc12` [Example I-328], the IC50 was less than 100 nM.

In the case of `COc1ccccc1-c1cc(C2=CCCN(C(=O)CCn3ccnn3)C2)c(F)c2[nH]c(C(=O)N3CCN(c4c(F)cccc4OC4CC4)CC3)cc12` [Example I-424], the IC50 was less than 100 nM.

For the compound `COc1cnccc1-c1cc(C2=CCCN(C(=O)CCn3ccnn3)C2)cc2[nH]c(C(=O)N(C)C)cc12` [Example I-1060], the IC50 is less than 100 nM.

As for `COc1ccccc1-c1cc(C2=CCCN(C(=O)CCn3ccnn3)C2)c(F)c2[nH]c(C(=O)N3CCN(c4c(F)cccc4OC)CC3)cc12` [Example I-367], the IC50 is less than 100 nM.

Take `COc1ccncc1-c1cc(C2=CCCN(C(=O)CCn3ccnn3)C2)c(F)c2[nH]c(C(=O)N3CCN(c4ccc(F)c(OC)c4F)CC3)cc12` [Example I-492]: the IC50 was greater than 100000 nM.

As to `CCc1cc(C)ncc1-c1cc(C2=CCCN(C(=O)CCn3ccnn3)C2)c(F)c2[nH]c(C(=O)N3Cc4cnn(CC)c4C3)cc12` [Example I-529], the IC50 is less than 100 nM.

On to `COc1ccccc1-c1cc(C2=CCCN(C(=O)CCn3ccnn3)C2)c(F)c2[nH]c(C(=O)N3CCN(c4c(C)cc[nH]c4=O)CC3)cc12` [Example I-1030], for which the IC50 was less than 100 nM.

For `COc1cc(F)cnc1N1CCN(C(=O)c2cc3c(-c4ccc(C5(O)CCC5)cc4)cc(C4=CCCN(C(=O)CCn5ccnn5)C4)c(F)c3[nH]2)CC1` [Example I-1146], the IC50 is less than 100 nM.

For `COc1cc(F)cnc1N1CCN(C(=O)c2cc3c(-c4cccc(O)c4)cc(C4=CCCN(C(=O)CCn5ccnn5)C4)c(F)c3[nH]2)CC1` [Example I-615], the IC50 is less than 100 nM.

For the compound `COc1ccncc1-c1cc(C2=CCCN(C(=O)CCn3ccnn3)C2)c(F)c2[nH]c(C(=O)N3CCN(C4CC4)CC3)cc12` [Example I-587], the IC50 was less than 100 nM.

In the case of `COc1ccccc1-c1cc(C2=CCCN(C(=O)CCn3ccnn3)C2)c(F)c2[nH]c(C(=O)N3CCN(c4cnc(SC)n5cnnc45)CC3)cc12` [Example I-910], the IC50 was less than 100 nM.

As to `COc1ccccc1-c1cc(C2=CCCN(C(=O)CCn3ccnn3)C2)c(F)c2[nH]c(C(=O)N3CCN(c4cncc5cccnc45)CC3)cc12` [Example I-954], the IC50 was less than 100 nM.

Take `COc1cc(F)cnc1N1CCN(C(=O)c2cc3c(C4=Cc5ccccc5C4)cc(C4=CCCN(C(=O)CCn5ccnn5)C4)c(F)c3[nH]2)CC1` [Example I-1161]: the IC50 lay within 100 to 1000 nM.

As for `COc1cc(F)cnc1N1CCN(C(=O)c2cc3c(-c4ccc(C(C)(C)C#N)cc4)cc(C4=CCCN(C(=O)CCn5ccnn5)C4)c(F)c3[nH]2)CC1` [Example I-1142], the IC50 was less than 100 nM.

`COc1ccccc1-c1cc(C2=CCCN(C(=O)CCn3cccn3)C2)c(F)c2[nH]c(C(=O)N3Cc4cnn(C)c4C3)cc12` [Example I-503]: the IC50 is 10000 to 100000 nM.

`COc1cc(F)cnc1N1CCN(C(=O)c2cc3c(-c4cccc(CN5CCOCC5)c4)cc(C4=CCCN(C(=O)CCn5ccnn5)C4)c(F)c3[nH]2)CC1` [Example I-1154]: the IC50 is less than 100 nM.

Take `CCc1ccncc1-c1cc(C2=CCCN(C(C)=O)C2)c(F)c2[nH]c(C(=O)N3Cc4cnn(C)c4C3)cc12` [Example I-702]: the IC50 lay in the range of 10000 to 100000 nM.
